Source: EP0234499A2, “Antifungal azolylpropanol derivatives” (SHIONOGI SEIYAKU KABUSHIKI KAISHA, priority 1986, dated 1987)

What was measured:
Candida albicans KE-2 [1] = assay: Inhibition test against pseudomycelium formation of Candida albicans; format: cell-based; details: minimum effective concentration preventing typical pseudomycelium formation, Eagle-MEM medium with 20 % calf serum, 1 x 10^6 yeast cells/ml, 18 hours at 37 °C, two fold dilution series; for minimal effective concentration: Candida albicans, KE2, read-out: Inhibition for Pseudomyselium Formation of Candida albicans (MEC, μg/ml)
Protocol: Inhibition test against psendomycelium formation of Candida albicans Candida albicans KE-2 was inoculated to Eagle-MEM medium (Nissan 2 made by Nissui Seiyaku, Ltd.) supplemented with 20 % calf serum so that its final inoculum of yeast cell might be 1 x 10^6 yeast cells per milliliter. The test compounds are added thereon in two fold dilution series. After incubation for 18 hours at 37 °C, the fungal growth in each drug concentration is smeared and fixed on a slide glass, and its morphological feature on the presence or absence of the psendomycelium formation is examined by a microscope following Giemsa staining. Minimum effective concentration (MEC, µg/ml) is defined as the lowest concentration of the compound which prevented typical pseudo- mycelium formation.

Candida albicans KE-2 [2] = assay: Therapeutic effect against experimental candidiasis in mice; format: in vivo, Jcl-ICR female mice; details: mouse survival ratio on the 5th day after infection, 50 mg/kg orally three times (0, 4 and 24 hours after infection), i.v. infection with 2 x 10^6 cells, eight mice per group; for Therapeutic Effect (%): 50 mg/kg; for responders at 50 mg/kg: Candida albicans, KE2, po, 120 h
Protocol: Therapeutic effect against experimental candidiasis in mice After Candida albicans KE-2 is incubated on Sabouraud's glucose agar at 28 °C for 48 hr., it is suspended in Sabouraud's glucose broth and the cells (2 ^x 10^6) are injected to a tail vein of Jcl-ICR female mice (4 weeks age; weight : 18 - 20 g). A suspension of the test compound in 2 % gum arabic is orally administered three times, immediately after infection of the yeast ( 0 hour), after 4 hours and after 24 hours, as a dosage of 50 mg/kg. Non-treated group is used as control. Eight mice per group are used in the control group and the treated group. All the mice in the control group died within 48 hours after infection. Therapeutic effect of the test compound is judged by mouse survival ratio on the 5th day after infection.

| Compound | Inhibition for Pseudomyselium Formation of Candida albicans (MEC, μg/ml) (Candida albicans KE-2 [1]) | Therapeutic Effect (%) (Candida albicans KE-2 [2]) | responders at 50 mg/kg (Candida albicans KE-2 [2]) | minimal effective concentration (Candida albicans KE-2 [1]) |
| --- | --- | --- | --- | --- |
| COC(n1cccn1)C(O)(Cn1ccnc1)c1ccc(F)cc1 (single isomer, unassigned) [Compound 28] | 0.08 µg/mL | 62.5% | – | – |
| COC(n1cncn1)C(O)(Cn1cncn1)c1ccc(Cl)cc1 (single isomer, unassigned) [Compound 26] | – | – | 100% | – |
| COC(n1cccn1)C(O)(Cn1cncn1)c1ccc(Cl)cc1 (single isomer, unassigned) [Compound 34] | – | – | – | 0.63 µg/mL |
| COC(n1cncn1)C(O)(Cn1ccnc1)c1ccc(F)cc1F (single isomer, unassigned) [Compound 40] | – | – | 37.5% | – |
| COC(n1cccn1)C(O)(Cn1ccnc1)c1ccc(Cl)cc1 (single isomer, unassigned) [Compound 36] | 0.08 µg/mL | 37.5% | – | – |
| COC(n1cccn1)C(O)(Cn1ccnc1)c1ccc(Cl)cc1 (single isomer, unassigned) [Compound 35] | – | – | 25% | 0.04 µg/mL |
| COC(n1cccn1)C(O)(Cn1cncn1)c1ccc(F)cc1 (single isomer, unassigned) [Compound 27] | – | – | 25% | – |
| COC(n1cccn1)C(O)(Cn1ccnc1)c1ccc(F)cc1F (single isomer, unassigned) [Compound 30] | 0.31 µg/mL | 50.0% | – | – |
| COC(n1cncn1)C(O)(Cn1cncn1)c1ccc(F)cc1 (single isomer, unassigned) [Compound 24] | – | – | 87.5% | 1.25 µg/mL |
| COC(n1cncn1)C(O)(Cn1cncn1)c1ccc(Cl)cc1Cl (single isomer, unassigned) [Compound 25] | – | – | 100% | 0.31 µg/mL |
| COC(n1cccn1)C(O)(Cn1ccnc1)c1ccc(F)cc1 (single isomer, unassigned) [Compound 31] | 1.25 µg/mL | 37.5% | – | – |
| COC(n1cnc(C)c1)C(O)(Cn1cncn1)c1ccc(Cl)cc1 (single isomer, unassigned) [Compound 46] | – | – | 12.5% | 0.08 µg/mL |
| COC(n1cncn1)C(O)(Cn1ccnc1)c1ccc(Cl)cc1Cl (single isomer, unassigned) [Compound 44] | – | – | 12.5% | – |
| COC(n1cccn1)C(O)(Cn1cncn1)c1ccc(F)cc1F (single isomer, unassigned) [Compound 49] | – | – | 75% | 0.31 µg/mL |
| COC(n1cncn1)C(O)(Cn1cncn1)c1ccc(F)cc1F (single isomer, unassigned) [Compound 21, 2-(2,4-Difluorophenyl)-1-methoxy-1,3-bis(1H-1,2,4-tri-azol-1-yl)-2-propanol] | 0.63 µg/mL | – | 87.5% | – |
| CCOC(n1cncn1)C(O)(Cn1cncn1)c1ccc(Cl)cc1Cl (centres unmarked) [Compound 54] | – | – | 87.5% | – |
| COC(n1ccnc1)C(O)(Cn1cncn1)c1ccc(Cl)cc1 (single isomer, unassigned) [Compound 23] | – | – | – | 0.63 µg/mL |
| COC(n1ccnc1C)C(O)(Cn1cncn1)c1ccc(Cl)cc1 (single isomer, unassigned) [Compound 45] | – | – | 37.5% | – |
| OC(Cn1cncn1)(c1ccc(F)cc1)C(OCC(F)(F)F)n1cncn1 (single isomer, unassigned) [Compound 32] | – | – | 50% | – |
| COC(n1cccn1)C(O)(Cn1cncn1)c1ccc(Cl)cc1 (single isomer, unassigned) [Compound 37] | 0.63 µg/mL | – | 62.5% | – |
| COC(n1cncn1)C(O)(Cn1cncn1)c1ccccc1F (single isomer, unassigned) [Compound 51] | – | – | – | 0.63 µg/mL |
| COC(n1cccn1)C(O)(Cn1ccnc1)c1ccc(F)cc1F (single isomer, unassigned) [Compound 29] | – | 100.0% | – | 0.31 µg/mL |
| COC(n1cncn1)C(O)(Cn1cncn1)c1ccc(F)cc1F (single isomer, unassigned) [Compound 47, 2-(2,4-Difluorophenyl)-1-methoxy-1,3-bis(1H-1,2,4-tri-azol-1-yl)-2-propanol] | 0.31 µg/mL | – | – | – |
| COC(n1cccn1)C(O)(Cn1cccn1)c1ccc(Cl)cc1 (single isomer, unassigned) [Compound 38] | – | – | 25% | 0.31 µg/mL |
| CCOC(n1cncn1)C(O)(Cn1cncn1)c1ccc(F)cc1 (single isomer, unassigned) [Compound 33] | – | – | – | 1.25 µg/mL |
